Measurements published in the NIST ThermoML archive (doi:10.1021/acs.jced.8b00509).

Experiment: mn = molality of the nth substance listed, in mol/kg
Details: 100 kPa, Liquid; for viscosity: Capillary tube (Ostwald / Ubbelohde) method; for speed of sound: Frequency=3 MHz, Single path-length method; for mass density: Vibrating tube method

C[C@H](CCC(=O)[O-])[C@H]1CC[C@H]2[C@@H]3[C@H](O)C[C@@H]4C[C@H](O)CC[C@]4(C)[C@H]3C[C@H](O)[C@]12C.[Na+] [sodium cholate] + O
Details	mass density [kg/m3]	speed of sound [m/s]	viscosity [mPa·s]
293.15 K, m1 = 0.002	998.46	1483.6	1.004
293.15 K, m1 = 0.004	998.67	1484.3	1.007
293.15 K, m1 = 0.006	998.88	1484.8	1.011
293.15 K, m1 = 0.008	999.1	1485.3	1.016
293.15 K, m1 = 0.01	999.32	1486	1.021
293.15 K, m1 = 0.012	999.53	1486.7	1.025
293.15 K, m1 = 0.014	999.76	1487.3	1.032
293.15 K, m1 = 0.016	999.98	1487.8	1.037
293.15 K, m1 = 0.018	1000.2	1488.3	1.041
293.15 K, m1 = 0.02	1000.41	1488.8	1.044
293.15 K, m1 = 0.022	1000.63	1489	1.048
293.15 K, m1 = 0.024	1000.83	1489.6	1.051
298.15 K, m1 = 0.002	997.29	1497.5	0.893
298.15 K, m1 = 0.004	997.5	1498	0.896
298.15 K, m1 = 0.006	997.7	1498.6	0.899
298.15 K, m1 = 0.008	997.91	1499.2	0.903
298.15 K, m1 = 0.01	998.13	1499.9	0.906
298.15 K, m1 = 0.012	998.34	1500.5	0.911
298.15 K, m1 = 0.014	998.56	1501	0.918
298.15 K, m1 = 0.016	998.77	1501.6	0.922
298.15 K, m1 = 0.018	998.97	1502	0.926
298.15 K, m1 = 0.02	999.19	1502.3	0.93
298.15 K, m1 = 0.022	999.39	1502.8	0.933
298.15 K, m1 = 0.024	999.6	1503.3	0.936
303.15 K, m1 = 0.002	995.88	1509.8	0.8
303.15 K, m1 = 0.004	996.08	1510.2	0.803
303.15 K, m1 = 0.006	996.29	1510.8	0.806
303.15 K, m1 = 0.008	996.49	1511.3	0.809
303.15 K, m1 = 0.01	996.7	1511.9	0.813
303.15 K, m1 = 0.012	996.91	1512.4	0.817
303.15 K, m1 = 0.014	997.12	1512.9	0.823
303.15 K, m1 = 0.016	997.34	1513.4	0.827
303.15 K, m1 = 0.018	997.54	1513.8	0.831
303.15 K, m1 = 0.02	997.74	1514.2	0.835
303.15 K, m1 = 0.022	997.94	1514.7	0.838
303.15 K, m1 = 0.024	998.14	1515.1	0.841
308.15 K, m1 = 0.002	994.26	1520.5	0.722
308.15 K, m1 = 0.004	994.46	1520.9	0.725
308.15 K, m1 = 0.006	994.66	1521.4	0.727
308.15 K, m1 = 0.008	994.87	1521.9	0.73
308.15 K, m1 = 0.01	995.08	1522.4	0.734
308.15 K, m1 = 0.012	995.29	1522.9	0.737
308.15 K, m1 = 0.014	995.5	1523.4	0.742
308.15 K, m1 = 0.016	995.7	1523.9	0.747
308.15 K, m1 = 0.018	995.9	1524.4	0.751
308.15 K, m1 = 0.02	996.1	1524.8	0.755
308.15 K, m1 = 0.022	996.29	1525.2	0.758
308.15 K, m1 = 0.024	996.49	1525.6	0.76
313.15 K, m1 = 0.002	992.43	1529.5	0.655
313.15 K, m1 = 0.004	992.63	1529.8	0.658
313.15 K, m1 = 0.006	992.84	1530.3	0.66
313.15 K, m1 = 0.008	993.04	1530.8	0.663
313.15 K, m1 = 0.01	993.24	1531.2	0.666
313.15 K, m1 = 0.012	993.45	1531.7	0.67
313.15 K, m1 = 0.014	993.66	1532.2	0.675
313.15 K, m1 = 0.016	993.85	1532.6	0.679
313.15 K, m1 = 0.018	994.05	1533.1	0.684
313.15 K, m1 = 0.02	994.24	1533.5	0.686
313.15 K, m1 = 0.022	994.45	1533.8	0.689
313.15 K, m1 = 0.024	994.64	1534.2	0.691
